Data set [1] has as its system murine melanoma B16-F10 cells. As to the kind of experiment: In vitro cytotoxicity, neutral red staining after 72 hours. As to conditions: for Cytotoxicity IC50: 72 hours incubation.
Description: (§2) For in vitro cytotoxicity experiment, murine melanoma B16-F10 cells were grown and maintained in Eagle's minimum essential medium (Nissui), which contains kanamycin (60 µg/ml), supplemented with heat-inactivated fetal calf serum (10%) and nonessential amino acids (0.6%) at 37°C under a humidified atmosphere in a 5% CO₂ incubator. Exponentially growing B16-F10 cells were harvested, counted and suspended in the culture medium at the concentration of 2.0x10⁴ cells/ml. The cell suspension (180 µl) was planted into wells of a 96-well microtiter plate and incubated for 24 hours. Test compounds (20 µl) were added to the wells and the plates were further incubated for 72 hours. The cytotoxic activity was colorimetrically determined at 540 nm after staining viable cells with neutral red solution.
Data set [2] relates to lymphocytic leukemia P388. Description: In vivo antitumor activity against P388 leukemia in mice. The settings on record: for T/C % of MST: P388, female CDF1 mice, Q1Dx3 ip; for anti-P388 activity compared with elsamicin A / toxicity compared with elsamicin A: P388 system, in words. The method, then:
(§1) In vivo antitumor activity of the above fifteen derivatives was tested in the lymphocytic leukemia P388 and melanoma B16 systems. Female CDF₁ (for P388) and male BDF₁ (for B16) mice were inoculated by ip injection at 10⁶ P388 cells and 0.5 ml of a 10% B16 brei per mouse, respectively (day 0). […] The percent increase of median survival time (MST) of treated animals over that of untreated control animals was determined and reported as T/C %. Compounds showing T/C % values of 125 or greater are considered to have significant antitumor activity.

Data set [3] relates to murine melanoma B16-F10 cells.
Description: as §2
Another data set concerns melanoma B16. Description: In vivo antitumor activity against B16 melanoma in mice. The settings on record: for No. of survivors/tested on day 50 / T/C % of MST: Q4Dx3 ip; for T/C % of MST: B16, male BDF1 mice. The method, then:
as §1

Where two headings read alike, the source gives them in different places. Where only a bound is given, the exact number is not on record here.

For the molecule `COC1C(N)C(OC2C(Oc3cccc4c(OCCCN5C(=O)c6ccccc6C5=O)c5c(=O)oc6ccc(C)c7c(=O)oc(c34)c5c67)OC(C)C(O)C2(C)O)OC(C)C1O` (centres unmarked) [Compound 7h, 6-O-(3-phthalimidopropyl)elsamicin A], the “Cytotoxicity IC50” value in data set [1] worked out at 0.71 µg/mL. Besides, the “T/C % of MST” value is on record as 105% in data set [2] (0.1 mg/kg/day); 105% in data set [2] (0.3 mg/kg/day); 120% in data set [2] (1 mg/kg/day); 125% in data set [2] (3 mg/kg/day); 140% in data set [2] (10 mg/kg/day).

As to `CCCOc1c2cccc(OC3OC(C)C(O)C(C)(O)C3OC3OC(C)C(O)C(OC)C3N)c2c2oc(=O)c3c(C)ccc4oc(=O)c1c2c43` (centres unmarked) [Compound 7c, 6-O-n-Propylelsamicin A], the “Cytotoxicity IC50” value in data set [1] was 0.03 µg/mL. Moreover, the “cytotoxicity compared with the parent compound” value in data set [3] is given as “approximately equipotent cytotoxicity to the parent compound”. The “T/C % of MST” value in data set [2] (0.1 mg/kg/day) was determined as 105%; in data set [2] (0.3 mg/kg/day) it was 129%; in data set [2] (1 mg/kg/day), 133%; in data set [2] (3 mg/kg/day), 152%; in data set [2] (10 mg/kg/day), 152%; in data set [2] (20 mg/kg/day), 155%. For the same molecule, the “T/C % of MST” value in data set [2] (40 mg/kg/day) was 159%. Also, the “anti-P388 activity compared with elsamicin A” value in data set [2] was “as active as elsamicin A”. Further, the “toxicity compared with elsamicin A” value in data set [2] is reported as “seemed to be less toxic”.

For the molecule `COC1C(N)C(OC2C(Oc3cccc4c(OC(C)C)c5c(=O)oc6ccc(C)c7c(=O)oc(c34)c5c67)OC(C)C(O)C2(C)O)OC(C)C1O` (centres unmarked) [Compound 7d, 6-O-Isopropylelsamicin A], the “Cytotoxicity IC50” value in data set [1] was found to be 0.49 µg/mL. Further, the “T/C % of MST” value in data set [2] (0.1 mg/kg/day) is reported as 95%; in data set [2] (0.3 mg/kg/day) it was 119%; in data set [2] (1 mg/kg/day), 124%; in data set [2] (3 mg/kg/day) it was 133%; in data set [2] (10 mg/kg/day), 148%.

For the molecule `CCOc1c2cccc(OC3OC(C)C(O)C(C)(O)C3OC3OC(C)C(O)C(OC)C3N)c2c2oc(=O)c3c(C)ccc4oc(=O)c1c2c43` (centres unmarked) [Compound 7b, 6-O-Ethylelsamicin A], the “Cytotoxicity IC50” value in data set [1] amounted to 0.06 µg/mL. Further, the “cytotoxicity compared with the parent compound” value in data set [1] (in words, versus elsamicin A) is “approximately equipotent cytotoxicity to the parent compound”. The “No. of survivors/tested on day 50” value with melanoma B16 (B16, 10 mg/kg/day) is reported as “(3/4)”. Also, the “T/C % of MST” value is 103% in the data set with melanoma B16 (0.1 mg/kg/day); 113% in the data set on melanoma B16 (0.3 mg/kg/day); 144% in the data set on melanoma B16 (1 mg/kg/day); 178% with melanoma B16 (3 mg/kg/day); “≧313%” in the data set on melanoma B16 (10 mg/kg/day); 110% in data set [2] (0.1 mg/kg/day). Also, the “T/C % of MST” value is listed as 125% in data set [2] (0.3 mg/kg/day); 130% in data set [2] (1 mg/kg/day); 150% in data set [2] (3 mg/kg/day); 170% in data set [2] (10 mg/kg/day); 170% in data set [2] (20 mg/kg/day); 180% in data set [2] (40 mg/kg/day). Further, in the data set with melanoma B16 (B16 system, in words), the “chemotherapeutic activity in the B16 system” value is given as “excellent chemotherapeutic activity”. Moreover, the “anti-P388 activity compared with elsamicin A” value in data set [2] is on record as “as active as elsamicin A”. In addition, in data set [2], the “toxicity compared with elsamicin A” value is “seemed to be less toxic”.

As for `CCCCCCOc1c2cccc(OC3OC(C)C4OC(C)(C)OC4(C)C3OC3OC(C)C(O)C(OC)C3N)c2c2oc(=O)c3c(C)ccc4oc(=O)c1c2c43` (centres unmarked) [Compound 8f, 6-O-n-Hexyl-3'4'-O-isopropylideneelsamicin A], the “Cytotoxicity IC50” value in data set [1] worked out at 0.9 µg/mL. In addition, the “T/C % of MST” value in data set [2] (0.1 mg/kg/day) is listed as 110%; in data set [2] (0.3 mg/kg/day), 110%; in data set [2] (1 mg/kg/day), 110%; in data set [2] (3 mg/kg/day) it was 115%; in data set [2] (10 mg/kg/day) it was 120%.

As for `CCCCCCOc1c2cccc(OC3OC(C)C(O)C(C)(O)C3OC3OC(C)C(O)C(OC)C3N)c2c2oc(=O)c3c(C)ccc4oc(=O)c1c2c43` (centres unmarked) [Compound 7f, 6-O-n-Hexylelsamicin A], in data set [1], the “Cytotoxicity IC50” value stood at 0.11 µg/mL. For the same molecule, the “T/C % of MST” value is 107% with melanoma B16 (0.1 mg/kg/day); 111% in the data set with melanoma B16 (0.3 mg/kg/day); 129% in the data set with melanoma B16 (1 mg/kg/day); 132% with melanoma B16 (3 mg/kg/day); 146% in the data set with melanoma B16 (10 mg/kg/day); 100% in data set [2] (0.1 mg/kg/day). Also, the “T/C % of MST” value in data set [2] (0.3 mg/kg/day) amounted to 105%; in data set [2] (1 mg/kg/day) it was 120%; in data set [2] (3 mg/kg/day), 130%; in data set [2] (10 mg/kg/day), 140%.

Regarding `COC1C(N)C(OC2C(Oc3cccc4c(O)c5c(=O)oc6ccc(C)c7c(=O)oc(c34)c5c67)OC(C)C(O)C2(C)O)OC(C)C1O` (centres unmarked) [Elsamicin A (1), Elsamicin A], the “Cytotoxicity IC50” value in data set [1] was found to be 0.05 µg/mL. Moreover, the “No. of survivors/tested on day 50” value in the data set with melanoma B16 (B16, 3 mg/kg/day) is 2/24; in the data set on melanoma B16 (B16, 10 mg/kg/day), 9/24. For the same molecule, the “T/C % of MST” value in the data set on melanoma B16 (0.1 mg/kg/day) is 120%; in the data set with melanoma B16 (0.3 mg/kg/day), 139%; with melanoma B16 (1 mg/kg/day) it was 178%; in the data set with melanoma B16 (3 mg/kg/day), not below 216%; in the data set on melanoma B16 (10 mg/kg/day), not below 305%; in data set [2] (0.1 mg/kg/day) it was 124%. Besides, the “T/C % of MST” value in data set [2] (0.3 mg/kg/day) is reported as 138%; in data set [2] (1 mg/kg/day), 155%; in data set [2] (3 mg/kg/day) it was 180%; in data set [2] (10 mg/kg/day) it was 206%; in data set [2] (20 mg/kg/day), “Tox”.

Turning to `COC1C(N)C(OC2C(Oc3cccc4c(OCCCN)c5c(=O)oc6ccc(C)c7c(=O)oc(c34)c5c67)OC(C)C3OC(C)(C)OC32C)OC(C)C1O` (centres unmarked) [Compound 8i, 6-O-(3-Aminopropyl)-3',4'-isopropylideneelsamicin A], the “Cytotoxicity IC50” value in data set [1] stood at 1.8 µg/mL. For the same molecule, the “T/C % of MST” value is on record as 105% in data set [2] (0.3 mg/kg/day), 110% in data set [2] (1 mg/kg/day), 120% in data set [2] (3 mg/kg/day) and 135% in data set [2] (10 mg/kg/day).

In the case of `COc1c2cccc(OC3OC(C)C4OC(C)(C)OC4(C)C3OC3OC(C)C(O)C(OC)C3N)c2c2oc(=O)c3c(C)ccc4oc(=O)c1c2c43` (centres unmarked) [Compound 8a, 3',4'-O-Isopropylidene-6-O-methylelsamicin A], the “Cytotoxicity IC50” value in data set [1] came out at 0.08 µg/mL.

Regarding `COc1c2cccc(OC3OC(C)C(O)C(C)(O)C3OC3OC(C)C(O)C(OC)C3N)c2c2oc(=O)c3c(C)ccc4oc(=O)c1c2c43` (centres unmarked) [Compound 7a, 6-O-Methylelsamicin A], the “Cytotoxicity IC50” value in data set [1] was determined as 0.19 µg/mL.

Take `CCCCCCCCCCOc1c2cccc(OC3OC(C)C4OC(C)(C)OC4(C)C3OC3OC(C)C(O)C(OC)C3N)c2c2oc(=O)c3c(C)ccc4oc(=O)c1c2c43` (centres unmarked) [Compound 8g, 6-O-n-Decyl-3'4'-O-isopropylideneelsamicin A]: the “Cytotoxicity IC50” value in data set [1] was determined as 2.9 µg/mL. The “T/C % of MST” value in data set [2] (0.3 mg/kg/day) worked out at 115%; in data set [2] (1 mg/kg/day), 105%; in data set [2] (3 mg/kg/day), 115%; in data set [2] (10 mg/kg/day), 100%.

Take `COC1C(N)C(OC2C(Oc3cccc4c(OCCCN)c5c(=O)oc6ccc(C)c7c(=O)oc(c34)c5c67)OC(C)C(O)C2(C)O)OC(C)C1O` (centres unmarked) [Compound 7i, 6-O-(3-Aminopropyl)elsamicin A]: the “Cytotoxicity IC50” value in data set [1] turned out to be 2.3 µg/mL. For the same molecule, the “T/C % of MST” value came to 105% in data set [2] (0.3 mg/kg/day), 110% in data set [2] (1 mg/kg/day), 110% in data set [2] (3 mg/kg/day) and 130% in data set [2] (10 mg/kg/day).

For the molecule `COC1C(N)C(OC2C(Oc3cccc4c(OCCCN5C(=O)c6ccccc6C5=O)c5c(=O)oc6ccc(C)c7c(=O)oc(c34)c5c67)OC(C)C3OC(C)(C)OC32C)OC(C)C1O` (centres unmarked) [Compound 8h, 3'4'-O-Isopropylidene-6-O-(3-phthalimidopropyl)elsamicin A], the “Cytotoxicity IC50” value in data set [1] was found to be 0.4 µg/mL. For the same molecule, the “T/C % of MST” value was determined as 100% in data set [2] (0.1 mg/kg/day); 110% in data set [2] (0.3 mg/kg/day); 110% in data set [2] (1 mg/kg/day); 120% in data set [2] (3 mg/kg/day); 130% in data set [2] (10 mg/kg/day).

With `CCCCCCCCCCOc1c2cccc(OC3OC(C)C(O)C(C)(O)C3OC3OC(C)C(O)C(OC)C3N)c2c2oc(=O)c3c(C)ccc4oc(=O)c1c2c43` (centres unmarked) [Compound 7g, 6-O-n-Decylelsamicin A], the “Cytotoxicity IC50” value in data set [1] was 2.5 µg/mL. For the same molecule, the “T/C % of MST” value in the data set with melanoma B16 (0.3 mg/kg/day) is listed as 107%; in the data set with melanoma B16 (1 mg/kg/day), 126%; in the data set with melanoma B16 (3 mg/kg/day) it was 153%; with melanoma B16 (10 mg/kg/day), 183%; in data set [2] (0.3 mg/kg/day), 115%; in data set [2] (1 mg/kg/day), 105%. Also, the “T/C % of MST” value amounted to 115% in data set [2] (3 mg/kg/day) and 100% in data set [2] (10 mg/kg/day).

These data come from EP0516157A1, “Preparation of 6-0-alkylelsamicin A derivatives” (priority 1991, dated 1992).
